Laboratory results taken from US7390523B2, “Method of forming a diffusion barrier layer for implantable devices” (Advanced Cardiovascular Systems Inc., priority 2000, dated 2008).
“And” between values parts separate entries of the source, which are not always exact repeats. Equal values may be shown once. *1 amine or outer side, *2 acyl side, *3 side chain or, on linkers, in order; H or OH if unused. Where a SMILES comes first, the peptide text is derived from it. Bridges are numbered along the chain shown (N, C = ends). Roman numbers before positions name the chains, in order. [ ]: non-standard residue; d: D form. Actinocin(9to1) = Cc1c2oc3c(C)ccc(C(=O)[*:1])c3nc-2c(C(=O)[*:2])c(N)c1=O; NMeV = CN[C@H](C(=O)O)C(C)C; Sar = CNCC(=O)O

Columns and labels:
[1] = 24 hour elution of vinblastine from EVOH coated stents in phosphated saline solution, HPLC analysis; assay type: physicochemical; details: for ug Release: Sterilized (electron beam) stent, 5 ml phosphated saline pH 7.4, room temperature; for Total uG Released / uG Release per Hour: Sterilized stent
Procedure: MULTI-LINK® stents were cleaned by placement in an ultrasonic bath of isopropyl alcohol solution for 10 minutes. The stents were dried and plasma cleaned in a plasma chamber. An EVOH solution was made with 1 gram of EVOH and 7 grams of DMSO, making an EVOH:DMSO ratio of 1:7. Vinblastine was added to the 1:7 EVOH:DMSO solution. Vinblastine constituted 2.5% by weight of the total weight of the solution. The solution was vortexed and placed in a tube. The cleaned MULTI-LINK® stents were attached to mandrel wires and dipped into the solution. The coated stents were passed over a hot plate, for about 3-5 seconds, with a temperature setting of about 60° C. The coated stents were cured for 6 hours in an air box then placed in a vacuum oven at 60° C. for 24 hours. The above process was repeated twice, having a total of three layers. The average weight of the coating was 0.00005 gram, with an estimated vinblastine concentration of 12 microgram per stent. Some of the stents were sterilized by electron beam radiation. The sterilized and unsterilized vinblastine coated stents were tested for a 24 hour elution period by placing one sterilized and one unsterilized stent in 5 ml of phosphated saline solution (pH 7.4) at room temperature with rotational motion. The amount of vinblastine eluted was evaluated by High Performance Liquid Chromatography (HPLC) analysis. The results of this test are given below in Tables 4A and 4B and plotted in FIG. 3.

[2] = test system: coronary arteries of a porcine stent injury model; experiment: Reduction in restenosis in the porcine coronary artery stent injury model; assay type: in vivo, Domestic swine; details: 28-day endpoint; for Percent Diameter Stenosis, angiographic data (QCA): microporous balloon catheter delivery before stenting
Procedure: Porcine coronary models were used to assess the degree of the inhibition of neointimal formation in the coronary arteries of a porcine stent injury model by Actinomycin D, delivered with a microporous balloon catheter (1×10^6 pores/mm^2 with sizes ranging from 0.2-0.8 micron).
The preclinical animal testing was performed in accordance with the NIH Guide for Care and Use of Laboratory Animals. Domestic swine were utilized to evaluate effect of the drug on the inhibition of the neointimal formation. Each testing procedure, excluding the angiographic analysis at the follow-up endpoints, was conducted using sterile techniques. During the study procedure, the activated clotting time (ACT) was monitored regularly to ensure appropriate anticoagulation. Base line blood samples were collected for each animal before initiation of the procedure. Quantitative coronary angiographic analysis (QCA) and intravascular ultrasound (IVUS) analysis was used for vessel size assessment.
The vessels at the sites of the delivery were denuded by inflation of the PTCA balloons to 1:1 balloon to artery ratio and moving the balloons back and forth 5 times. The drug was delivered to the denuded sites at 3.5 atm (3.61 Kg/sq cm) for 2 minutes using the microporous balloon catheters before stent deployment. The average volume of delivery was about 3.3+/−1.2 ml. Following drug delivery, stents were deployed at the delivery site such that final stent to artery ratio was 1.1:1.
QCA and IVUS analyses were used for stent deployment guidance. Pre-stenting IVUS measurements of the lumen size at the targeted vessel sites were performed for determination of the balloon (size) inflation pressure. Quantitative analysis of the stented coronary arteries to compare pre-stenting, post-stenting, follow-up minimal luminal diameters, stent recoil, and balloon/stent to artery ratio were performed. Following stent implantation and final angiogram, all devices were withdrawn and the wounds closed; the animals were allowed to recover from anesthesia as managed by the attending veterinarian or animal care professionals at the research center.
Upon return to the research laboratory at the 28-day endpoint, angiographic assessments were performed. Coronary artery blood flow was assessed and the stented vessels were evaluated to determine minimal lumen diameter. The animals were euthanized following this procedure at the endpoint. Following euthanasia, the hearts were pressure perfusion fixed with formalin and prepared for histological analysis, encompassing light microscopy, and morphometry. Morphometric analysis of the stented arteries included assessment of the position of the stent struts and determination of vessel/lumen areas, percent (%) stenosis, injury scores, intimal and medial areas and intima/media ratios. Percent stenosis is quantitated by the following equation: 100(IEL area−lumen area)/IEL area
where IEL is the internal elastic lamia.
The control group of animals received delivery of water instead of the drug. The test group of animals received actinomycin D in two different concentration of 10^−5M and 10^−4M. […] FIGS. 5A and 5B illustrate sample pictures of the histology slides of the coronary vessels from the control and the Dose 1 group, respectively.

SMILES: CC[C@]1(O)C[C@@H]2CN(CCc3c([nH]c4ccccc34)[C@@](C(=O)OC)(c3cc4c(cc3OC)N(C)[C@H]3[C@@](O)(C(=O)OC)[C@H](OC(C)=O)[C@]5(CC)C=CCN6CC[C@]43[C@@H]65)C2)C1 [Vinblastine]
- ug Release ([1]; 0 Hours): 0 µg
- ug Release ([1]; 0.5 Hours): 2.14 µg
- ug Release ([1]; 3 Hours): 1.7 µg
- ug Release ([1]; 4 Hours): 0.28 µg
- ug Release ([1]; 6 Hours): 0.26 µg
- ug Release ([1]; 24 Hours): 2.05 µg
- Total uG Released ([1]; 0 Hours): 0 uG
- uG Release per Hour ([1]; 0 Hours): 0 uG per Hour
- Total uG Released ([1]; 0.5 Hours): 2.14 uG
- uG Release per Hour ([1]; 0.5 Hours): 4.28 uG per Hour
- Total uG Released ([1]; 3 Hours): 3.84 uG
- uG Release per Hour ([1]; 3 Hours): 0.68 uG per Hour
- Total uG Released ([1]; 4 Hours): 4.12 uG
- uG Release per Hour ([1]; 4 Hours): 0.28 uG per Hour
- Total uG Released ([1]; 6 Hours): 4.38 uG
- uG Release per Hour ([1]; 6 Hours): 0.13 uG per Hour
- Total uG Released ([1]; 24 Hours): 6.43 uG
- uG Release per Hour ([1]; 24 Hours): 0.11 uG per Hour
- effect of electron beam radiation procedure on the release of vinblastine from EVOH ([1]; sterilized vs unsterilized coated stents, 24 hour elution): does not interfere

SMILES: Cc1c2oc3c(C)ccc(C(=O)N[C@@H]4C(=O)N[C@H](C(C)C)C(=O)N5CCC[C@H]5C(=O)N(C)CC(=O)N(C)[C@@H](C(C)C)C(=O)O[C@@H]4C)c3nc-2c(C(=O)N[C@@H]2C(=O)N[C@H](C(C)C)C(=O)N3CCC[C@H]3C(=O)N(C)CC(=O)N(C)[C@@H](C(C)C)C(=O)O[C@@H]2C)c(N)c1=O [actinomycin D] (I: T[dV]P[Sar][NMeV] / II: T[dV]P[Sar][NMeV]; ester I:1-I:C, II:1-II:C; linker I:N-II:N via Actinocin(9to1))
- Percent Stenosis (IEL area-lumen area)/IEL area, histomorphometric data ([2]; DOSE 1 1E−05 M, n = 30): 51.8%
- Residual Lumen (Lumen area)/IEL area, histomorphometric data ([2]; DOSE 1 1E−05 M, n = 30): 0.49
- Percent Diameter Stenosis, angiographic data (QCA) ([2]; DOSE 1 1E−05 M, n = 10): 36.8%
- Percent Stenosis (IEL area-lumen area)/IEL area, histomorphometric data ([2]; DOSE 2 1E−04 M, n = 21): 54.1%
- Residual Lumen (Lumen area)/IEL area, histomorphometric data ([2]; DOSE 2 1E−04 M, n = 21): 0.46
- Percent Diameter Stenosis, angiographic data (QCA) ([2]; DOSE 2 1E−04 M, n = 7): 32.3+/−11.7% and 32.3%
